The source of these data is patent US7695741B2, “Topical formulation for prevention and treatment of acne” (SK Chemicals Co., Ltd., priority 2002, dated 2010).

The structures appear in SMILES notation. Marks after values point to notes of the source that are not given here.

For one test, the system named is Propionibacterium acnes. Kind of test: Antimicrobial activity against acne pathogen (agar medium, anaerobic culture, colony count). In kind it is cell-based. Details: key: −: inhibition of growth; ±: pseudo-positive; +: positive. As for the experimental part: The examination on antimicrobial activity of three extracts (Cavalia gladiata, Biota orientalis and Coptis chinensis) was performed in such a manner that an acne pathogen (Propionibacterium acnes) that was cultured in liquid medium was treated with a predetermined concentration of extract powderized by freeze drying and then cultured in an anaerobic incubator, followed by measuring a minimum inhibitory concentration (MIC) against an acne pathogen (Propionibacterium acnes). The overall procedure is as follows:
The acne pathogen (Propionibacterium acnes) was cultured at 37° C. for 3 days in reinforced clostridial medium and then continued to subculture until showing significant activity.
First, in a liquid culture method, 10 ml of reinforced clostridial medium were introduced to screw cap tube and sterilized for 20 min at 121° C. After sterilization, 0.5 ml of liquid paraffin sterilized separately was added dropwise on the liquid medium to protect the contact with oxygen. After cooling the medium, the microbe was inoculated into the medium and cultured at 37° C. for above 72 hr.
Second, in a solid culture method, 10 ml of the solid medium prepared by adding 0.1% agar to reinforced clostridial medium was introduced to a screw cap tube and sterilized at 121° C. for 20 min. After cooling the medium, the microbe was inoculated into the medium by use of inoculating platinum loop and stab-cultured for 72 hr at 37° C.
Third, in a plate culture method, the agar medium prepared and sterilized as a solid culture method was poured to a plate and cooled. After cooling and solidifying completely, the plate was placed in an anaerobic jar, 10 ml of water were introduced to complex gas (CO2 10.5%, H2 9.6%, N2 79.9%) and the lid was kept covered, followed by culturing at 37° C. for 72 hr.
1 ml of the medium containing Propionibacterium acnes subjected to a sufficient subculture was taken and inoculated into a medium containing 9 ml of reinforced clostridial medium, thereby obtaining 10-fold diluted culture medium. The same procedure was repeated to obtain between 10^−1 and […] diluted culture media. Each of the homogeneous solutions containing Cavalia gladiata, Biota orientalis, Coptis chinensis and at least two combinations thereof was well dissolved in 10 ml of 70% ethanol to obtain 2-fold diluted solution. The solution was filtered for removing bacteria through 0.2 μm membrane filter. […] 1 ml of the diluted medium (medium of Propionibacterium acnes subject to subculture diluted to 10^−1-10^−5) was dispensed in a petri dish and each agar medium having certain concentration was dispensed, followed by mixing and keeping it to stand for solidifying the agar medium. After solidification, the medium was placed in an anaerobic jar that in turn was equipped with gas-pak. Following culturing at 37° C. for 3 days, the number of colonies formed were counted and compared to that of a control group, and the inhibitory rate was calculated based on the results.

For a further test, the system named is skin of a hairless mouse. In words: First screening for promoting keratolysis (silver acetate blackened skin, closed patch). Details: key to Discoloration (keratolysis effect): ++: significant discoloration; +: discoloration; ±: slight discoloration; −: no change. The following applies: for Appearance of Exfoliation: hairless mouse, closed patch about 24 hr; for Discoloration (keratolysis effect): positive control 2 wt % (pH 4). In kind it is in vivo. As for the experimental part: All skin cells help to maintain skin homeostasis through suitable metabolic processes by controlling the rate of their proliferation and exfoliation. Therefore, the reproduction rate of skin could be indirectly examined by observing the exfoliation rate of stratum corneum that can be generally measured by evaluating the level of skin discoloration associated with keratolysis. In evaluating the efficacy of extracts, the first screening for promoting keratolysis was performed using hairless mouse. Each extract sample was prepared by dissolving the dried powder extract prepared in Example 1 in 70% ethanol and the positive controls including glycolic acid or lactic acid were prepared as described above. The experiments were carried out as follows: The skin of a hairless mouse was washed with 10% SDS for 30 min and then allowed its skin to dry for experiment. 0.4 ml of aqueous silver acetate liquid was covered with a hill top chamber and closed patch was performed for 30 min, followed by infiltrating with a photo-developing solution to blacken a portion of patch with silver acetate. The closed patch was further performed with each extract sample on the blackened portion and removed after about 24 hr. The coloring index before application of extract and discoloring index at 24 hr after removal were measured by means of calorimeter (The higher the discoloring index, the higher is the keratolysis effect)

In test [1] the target is T1, Testosterone 5α-Reductase (Rattus norvegicus, UniProt P24008).
T1 construct: from tissue; host or cells: liver of 8-week-old female Sprague-Dawley rat (homogenate, sonicated and centrifuged)
T1 sequence (P24008 1-259): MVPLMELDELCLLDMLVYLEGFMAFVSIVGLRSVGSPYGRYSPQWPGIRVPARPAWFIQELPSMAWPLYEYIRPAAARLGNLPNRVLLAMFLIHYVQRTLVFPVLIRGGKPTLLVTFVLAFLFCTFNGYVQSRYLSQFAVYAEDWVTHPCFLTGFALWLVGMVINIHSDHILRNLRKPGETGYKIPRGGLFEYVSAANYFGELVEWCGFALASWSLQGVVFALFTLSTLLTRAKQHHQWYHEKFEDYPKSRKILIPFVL
Kind of test: Inhibitory effect on testosterone 5α-reductase activity (rat liver enzyme, (3H) testosterone, TLC). Type of test: biochemical, Sprague-Dawley rat. The protocol: Testosterone 5α-Reductase, used to examine the inhibitory effect of the extract obtained from oriental medicines against testosterone 5α-reductase activity, was prepared at a temperature of below 4° C. The white female Sprague-Dawley rat aged at 8 weeks was anesthetized by inhalation of diethylether and sacrificed by the disjunction of cervicals, followed by liver ablation. The extracted liver was washed three times with PBS (phosphate buffered saline) and 3 volumes of ice-cold buffer (50 mM sodium phosphate, pH 6.8, 0.25 M sucrose, 1 mM dithiothreitol) were added, followed by pulverizing with a cell homogenizer (Polytron Homogenizer), obtaining homogenized suspension. […] The protein quantification of the protein suspension obtained thus was performed according to Bradford method and its accurate value was determined with ELISA reader.
For evaluating the inhibitory effect on the activity of 5α-Reductase, to 50 μl of the reaction solution, 10 μl of ethanol solution of inhibitor or tested sample (70% ethanol solution containing extract from oriental medicine) were added and the protein suspension was added to the volume of 100 μl of the reaction solution. […] The area exposed was measured with densitometer and the inhibitory rate against testosterone 5α-Reductase was calculated as shown in the below formula 1. […]

In test [2] the test system is comedo of rabbit ear. Kind of test: Alleviatory effect on comedo using ear of white rabbit, observation with naked eye. Type of test: in vivo, New Zealand white male rabbits. The text has this: (§1) Test system—This test has been generally adopted for evaluation of treatment. New Zealand white male rabbits aged at 4-month and weighed 2-3 kg were purchased and mitigated for 1 week, of which only the healthy ones determined with naked eye were selected.
(§2) Test materials—For test groups, the powderized extracts (0.1% (w/v)) from Cavalia gladiata, Biota orientalis, Coptis chinensis and their mixture dissolved in 70% ethanol solution were used, respectively, 1.0% azelaic acid dissolved in 70% ethanol solution was used as a positive control and 70% ethanol solution per se was used as negative control.
(§3) Classification of test systems—Isopropyl myriatate (Sigma) was daily applied to both ears of rabbit for 2 weeks for inducing comedo. Rabbits observed with naked eye to show typical comedo were selected and classified to groups each of which was comprised of 6 rabbits in consideration of comedo severity.
(§4) Administration method of test materials—Test groups and a positive control to the right ear and a negative control to the left ear of rabbit were administered once daily for 2 weeks in the amount of 0.5 ml and spread with a swab. After 2 weeks, both ears were evaluated.
The standards for determination with naked eye were classified to 7 grades, 0, 0.5, 1.0, 1.5, 2.0, 2.5 and 3.0. The area of comedo was evaluated. The period for treatment of comedo was 2-week and the aggravation and alleviation of comedo were determined.
• 0: no difference compared to control • […]: symptoms between 0 and 1 • 1: showing congestion, bleeding of capillary tube, slight cornification and enlargement of hair follicle • 1.5: symptoms between 1 and 2 • 2: medium severity of cornification and enlargement of hair follicle • 2.5: symptoms between 2 and 3 • 3: excessive severity of cornification and enlargement of hair follicle, showing typical comedo

Test [3] concerns comedo of rabbit ear. In words: Alleviatory effect on comedo using ear of white rabbit, observation with image analysis. In kind it is in vivo, New Zealand white male rabbits.
Description: as §1, §2, §3, §4
After the observation with naked eye, each test group was euthanized with sodium pentobarbital and its both ears were cut out, after which their tissues at basement were cleaved in a size of about 2.5×1.5 cm and immersed in warm water (50° C.) for 3 min. The epiderms from the tissues were detached, placed with inner side upward on slide glass, fixed and dried at room temperature.

The subject of a further test is mouse ear edema. Kind of test: Balb.c ear edema test. In kind it is in vivo, Balb.c mouse. The note with it: 0.3 mg/ear topically at 15 min and 6 hr after induction; 24 hr. As for the experimental part:
To examine anti-inflammatory effect of the extracts, irritation-inducing substances, 5.0% benzalkonium chloride, 2.5% coroton oil and 3000 iu/g retinoic acid (negative control) were dissolved in 70% ethanol solution and its 0.3 mg/ear was topically applied to mouse ear (6 mice per group) in order to induce edema. At 15 min and 6 hr after induction of edema, respectively, each of the extract and controls (0.3 mg/ear) was topically applied to mouse ear. After 24 hr of application of irritation-inducing substances, the applied portion of the mouse was cut off with a punch and its weight was weighted. The edema extent was evaluated based on the mean value from the measurements with micrometer.
Inhibitory rate (%)=[(A−B)/A]×100 Formula 4
A: mean value of ear thickness of control group (ear thickness after treatment of negative control−ear thickness with no treatment)
B: ear thickness of sample group (ear thickness after treatment of sample−ear thickness with no treatment)

The subject of the next test is carrageenan foot edema. Kind of test: Carrageenan foot edema method using SD rat. Type of test: in vivo. The note with it: 30 mg/kg intraperitoneally, 1 hr before carrageenan; foot volume change at 4 hr. The protocol: The extracts from Cavalia gladiata, Biota orientalis, Coptis chinensis and their mixture prepared in Example 1 were intraperitoneally administered, respectively, in an amount of 30 mg/kg. After 1 hr, 0.5 ml of 0.1% carrageenan solution was injected into the sole of a back foot to induce inflammation. The volume change of rat foot at the time of injection of carrageenan and 4-hr after administration was measured and the Inhibitory rate was calculated according to the Formula 3. Inhibitory rate (%)=[(1−ΔVtreated group)/ΔVcontrol group)]×100 (ΔV: volume change of foot) Formula 3
Background: The carrageenan paw model is a standard test of acute inflammation.

[4] abbreviates: extracts 0.1% (w/v), azelaic acid 1.0%, 2 weeks.

In the case of `O=C(OOC(=O)c1ccccc1)c1ccccc1` [Benzoylperoxide], the “MIC to P. acnes (growth at concentration of extract)” value with Propionibacterium acnes (Concentration of extract 0.005 %) is on record as “+”; with Propionibacterium acnes (Concentration of extract 0.01 %), “+”; in the test with Propionibacterium acnes (Concentration of extract 0.03 %), “+”; with Propionibacterium acnes (Concentration of extract 0.05 %) it was “+***”; in the test on Propionibacterium acnes (Concentration of extract 0.10 %) it was “±**”; in the test with Propionibacterium acnes (Concentration of extract 0.50 %), “−”.
In the case of `O=C(O)CO` [Glycolic acid], in the test on skin of a hairless mouse, the “Appearance of Exfoliation” value was “Heterogeneous” and the “Discoloration (keratolysis effect)” value was 2 wt % (pH 4) ++.
Turning to `O=C(O)CCCCCCCC(=O)O` [Azelaic acid], the “Inhibitory rate against 5α-reductase (%)” value in test [1] (Conc. 0.1 %) is given as 19.8%; in test [1] (Conc. 1.0 %), 100.0%. For the same compound, in the test on comedo of rabbit ear [2] (setting [4]), the “Inhibitory rate (%), naked eye comedo grade” value is recorded as 28.5%. Further, the “After administration (right ear), naked eye comedo grade” value in the test with comedo of rabbit ear [2] (grades 0-3, extracts 0.1% (w/v), azelaic acid 1.0%, 0.5 ml once daily for 2 weeks) turned out to be 1.13 ± 0.14. Further, the “Before administration (left ear), naked eye comedo grade” value in the test on comedo of rabbit ear [2] (grades 0-3, left ear) is reported as 1.58 ± 0.12. The “Inhibitory rate (%), area of comedo/number” value in the test with comedo of rabbit ear [3] (setting [4]) came out at 40.0%. In the test with comedo of rabbit ear [3] (image analysis, extracts 0.1% (w/v), azelaic acid 1.0%, once daily for 2 weeks), the “After administration (right ear) Area of comedo/number (cm^2)” value came out at 0.18 ± 0.02 cm^2. Further, the “Before administration (left ear) Area of comedo/number (cm^2)” value in the test with comedo of rabbit ear [3] (image analysis, left ear) is 0.30 ± 0.02 cm^2. The “comedo decreasing ratio (area/count ratio)” value with comedo of rabbit ear [3] (text restating Table 11) is 40.0%.
`CC1(C)[C@@H](O[C@H]2O[C@H](C(=O)O)[C@@H](O)[C@H](O)[C@H]2O[C@@H]2O[C@H](C(=O)O)[C@@H](O)[C@H](O)[C@H]2O)CC[C@]2(C)[C@H]3C(=O)C=C4[C@@H]5C[C@@](C)(C(=O)O)CC[C@]5(C)CC[C@@]4(C)[C@]3(C)CC[C@@H]12` [Glycyrrhizinic acid]: in the test with mouse ear edema, the “Inhibitory rate on ear thickness (%)” value was 42.7% and the “Inhibitory rate on ear weight (%)” value came to 38.4%.
With `CC(O)C(=O)O` (stereo not drawn) [Lactic acid], in the test on skin of a hairless mouse, the “Appearance of Exfoliation” value is recorded as “Heterogeneous” and the “Discoloration (keratolysis effect)” value is 2 wt % (pH 4) ++.
Take `CC(=O)Oc1ccccc1C(=O)O` [Aspirin]: the “Inhibitory rate (%) of foot edema” value with carrageenan foot edema is reported as 35.2 ± 6%.
With `COc1ccc2c(c1)c(CC(=O)O)c(C)n2C(=O)c1ccc(Cl)cc1` [Indomethacin], in the test on mouse ear edema, the “Inhibitory rate on ear thickness (%)” value is 52.0% and the “Inhibitory rate on ear weight (%)” value is on record as 45.6%.
